{
  "source": "patent US20240279149A1",
  "about": "(ZHEJIANG OCEAN UNIVERSITY, priority 2021, published 2024)",
  "key": {"[1]": {"experiment": "Singlet oxygen generation ability, ABDA absorbance decay method", "format": "physicochemical", "conditions": "5 μmol/L compound, 50 μmol/L ABDA, aqueous solution, blue LED 470 nm, 20 mW/cm^2, 180 s; FIG. 4"}, "[2]": {"tested_on": "total number of colonies of the Chinese tube whip shrimps", "experiment": "Total sterilization effect experiment: total number of colonies (aerobic plate count) of photodynamically treated shrimp in 4° C. storage", "format": "cell-based", "conditions": "20 μmol/L", "method": "The total sterilization effect experiment and sensory evaluation of the Chinese tube whip shrimps obtained from Application Example 1, Comparative Application Example 1, and Comparative Application Example 2 were carried out. The specific steps are as follows: • (1) the Chinese tube whip shrimps obtained from Application Example 1, Comparative Application Example 1, and Comparative Application Example 2 were put into a fresh-keeping bag of a fresh-keeping box, and stored in a refrigerator at 4° C.; • (2) when stored for 2, 4, 6, 8, and 10 days, according to the method specified in the national standard GB/T 4789.2-2016 Food Microbiological Examination—Aerobic Plate Count, the total number of colonies of the Chinese tube whip shrimps treated in step (1) was measured; and • (3) when stored for 2, 4, 6, 8, and 10 days, a sensory evaluation team conducted sensory scores on the stored shrimps; the sensory score team was composed of 10 strictly trained personnel to evaluate the appearance, odor, and posture of the processed Chinese tube whip shrimps, and the average value was taken. The scoring criteria are shown in Table 1, and the sensory score result is the sum of the 3 indicator scores with a total score of 18 indicating absolute freshness and 9 indicating significant quality deterioration.\nFrom this, it can be seen that the shelf life of refrigerated Chinese tube whip shrimp in Comparative Application Example 1 and Comparative Application Example 2 is only 4 days."}},
  "data": [
    {"compound": "COc1cc(/C=C/C=C/C(O)=C/C(=O)/C=C/c2ccc(Br)c(OC)c2)ccc1Br", "note": "[Embodiment 1]", "values": [
      {"measurement": "singlet oxygen generation ability", "setting": "[1]", "value": "higher than that of the single bromine substituted curcumin derivative obtained in Embodiment 2"},
      {"measurement": "bacterial growth (total number of colonies)", "setting": "[2]; soaking 10 min, blue LED 10 W, 470 nm, 120 s, stored at 4° C. for 2-10 days, vs Comparative Application Examples 1 and 2, p<0.05, FIG. 6", "value": "significantly inhibited"},
      {"measurement": "freshness level by total number of colonies", "setting": "[2]; after 10 days of refrigeration at 4° C., blue LED 10 W, 470 nm, 120 s", "value": "approached second-level freshness"},
      {"measurement": "freshness level by total number of colonies", "setting": "[2]; on the 4th day of refrigeration at 4° C., blue LED 10 W, 470 nm, 120 s", "value": "first-level freshness (the shrimp with a total number of colonies of ≤10^5 CFU/g is considered as first-level freshness)"},
      {"measurement": "shelf life of fresh shrimp (in words)", "setting": "[2]; photodynamic treatment of Chinese tube whip shrimp, stored at 4° C.", "value": "significantly prolonged"}
    ]},
    {"compound": "COc1cc(/C=C/C(=O)CC(=O)/C=C/c2ccc(O)c(OC)c2)ccc1O", "note": "[natural curcumin, curcumin, reference compound]", "values": [
      {"measurement": "shelf life of refrigerated Chinese tube whip shrimp", "setting": "[2]; soaking 10 min, blue LED 10 W, 470 nm, 120 s, stored at 4° C., end of shelf life by total number of colonies", "value": 4, "unit": "days"}
    ]}
  ]
}
